BindingDB's records for patent US9428501 (Astellas Pharma Inc, 2016)

Target: 5'-AMP-activated protein kinase catalytic subunit alpha-2 (Homo sapiens, UniProt P54646)
Assay: Activation Assay
Conditions: 37 °C
Experimental: After the incubation, 20 μl of a 40% glyoxal solution (Nacalai Tesque) was added to each well, and then cells were fixed by leaving to stand at room temperature for 30 minutes. Thereafter, the supernatant was removed by centrifuging the plate, and then 0.1% Triton X-100-containing Phosphate-Buffered Saline (PBS) was added to each well by 20 followed by incubating at room temperature for 10 minutes. […] The blocking solution was removed by centrifuging, with the exception of the blocking solution by centrifugation, and then a blocking solution which was diluted such that the amount of phosphorylation antibody (manufactured by Cell Signaling Technology, Inc) of ACC Ser79 as a primary antibody is 1/500 was added to each well by 10 followed by leaving to stand at 4° C. overnight. The following day, the reaction liquid was removed by centrifuging the plate, and then 0.05% Tween-20-containing Tris-Buffered Saline (TBS) (manufacture by Thermo Scientific Inc.; used in 1× in which 20×TBS Tween-20 was diluted with ion-exchange water) was added to each well by 25 followed by washing each well by centrifugal removal. The washing of each well was repeated for a total of 3 times. […]

Chain of 5'-AMP-activated protein kinase catalytic subunit alpha-2 (P54646 whole entry): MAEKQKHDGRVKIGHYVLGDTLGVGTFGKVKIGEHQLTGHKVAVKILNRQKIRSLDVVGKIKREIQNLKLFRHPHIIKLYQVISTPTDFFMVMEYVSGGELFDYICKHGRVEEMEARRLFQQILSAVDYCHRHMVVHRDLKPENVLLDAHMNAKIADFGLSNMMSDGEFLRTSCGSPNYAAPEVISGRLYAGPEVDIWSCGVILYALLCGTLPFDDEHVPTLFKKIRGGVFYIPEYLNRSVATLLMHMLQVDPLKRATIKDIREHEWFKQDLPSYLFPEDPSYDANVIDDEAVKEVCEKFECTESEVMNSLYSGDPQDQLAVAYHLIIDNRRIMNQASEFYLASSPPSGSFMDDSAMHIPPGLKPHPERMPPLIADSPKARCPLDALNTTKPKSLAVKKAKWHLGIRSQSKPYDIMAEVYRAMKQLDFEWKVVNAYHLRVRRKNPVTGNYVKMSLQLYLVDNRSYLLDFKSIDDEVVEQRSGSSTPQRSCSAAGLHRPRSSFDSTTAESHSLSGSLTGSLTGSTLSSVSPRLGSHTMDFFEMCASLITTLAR

- EC50: 1.8 nM
SMILES: CCOc1cnc(CN2CCC(c3ccc4cc(C(=O)N5CCN(Cc6ccc(C#N)cc6)CC5)n(C)c4c3)CC2)cn1 [US9428501, 69]
